Source: ChEMBL document CHEMBL4376854, “Investigation of the Adrenergic and Opioid Binding Affinities, Metabolic Stability, Plasma Protein Binding Properties, and Functional Effects of Selected Indole-Based Kratom Alkaloids” (J Med Chem, 2020)
Calls of active or inactive are those of the source. The calls are words filed in the database; no cut-off is given here.

How the values were obtained:
[1] = biological target: Kappa-type opioid receptor (Homo sapiens, UniProt P41145); assay: Agonist activity at human recombinant kappa opioid receptor expressed in rat RBL cells assessed as stimulation of intracellular calcium levels incubated at room temperature by fluorimetry; assay type: functional, cell-based
Kappa-type opioid receptor, sequence (P41145 whole entry): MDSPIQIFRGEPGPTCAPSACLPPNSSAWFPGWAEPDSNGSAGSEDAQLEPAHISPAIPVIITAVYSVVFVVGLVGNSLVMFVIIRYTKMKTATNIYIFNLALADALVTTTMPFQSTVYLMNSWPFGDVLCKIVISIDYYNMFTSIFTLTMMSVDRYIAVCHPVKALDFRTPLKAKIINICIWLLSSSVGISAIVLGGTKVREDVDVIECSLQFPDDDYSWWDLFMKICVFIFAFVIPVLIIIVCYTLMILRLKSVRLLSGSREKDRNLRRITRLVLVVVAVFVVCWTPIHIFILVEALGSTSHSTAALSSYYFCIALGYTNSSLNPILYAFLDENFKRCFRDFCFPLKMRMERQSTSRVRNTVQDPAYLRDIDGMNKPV

[2] = biological target: T1, Alpha-1B adrenergic receptor (Homo sapiens, UniProt P35368); assay: Displacement of [3H]prazosin from human recombinant adrenergic alpha-1B receptor expressed in CHO cell membranes incubated for 60 mins
T1 sequence (P35368 whole entry): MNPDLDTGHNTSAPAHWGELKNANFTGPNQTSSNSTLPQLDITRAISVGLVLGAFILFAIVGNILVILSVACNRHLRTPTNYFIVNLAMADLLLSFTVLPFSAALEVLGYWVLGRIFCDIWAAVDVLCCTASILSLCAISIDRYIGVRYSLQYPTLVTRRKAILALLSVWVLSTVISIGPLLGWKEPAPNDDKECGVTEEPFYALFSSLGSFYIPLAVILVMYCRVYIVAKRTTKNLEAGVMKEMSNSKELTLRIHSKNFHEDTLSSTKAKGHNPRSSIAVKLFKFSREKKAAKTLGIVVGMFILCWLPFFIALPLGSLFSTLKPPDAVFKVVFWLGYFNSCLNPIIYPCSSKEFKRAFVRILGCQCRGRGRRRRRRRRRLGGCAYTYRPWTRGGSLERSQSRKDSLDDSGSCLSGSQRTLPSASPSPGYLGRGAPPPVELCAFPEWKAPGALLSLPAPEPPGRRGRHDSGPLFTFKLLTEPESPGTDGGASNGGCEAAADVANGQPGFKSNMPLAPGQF

[3] = biological target: T2, Alpha-1D adrenergic receptor (Homo sapiens, UniProt P25100); assay: Displacement of [3H]prazosin from human recombinant adrenergic alpha-1D receptor expressed in CHO cell membranes incubated for 60 mins
T2 sequence (P25100 whole entry): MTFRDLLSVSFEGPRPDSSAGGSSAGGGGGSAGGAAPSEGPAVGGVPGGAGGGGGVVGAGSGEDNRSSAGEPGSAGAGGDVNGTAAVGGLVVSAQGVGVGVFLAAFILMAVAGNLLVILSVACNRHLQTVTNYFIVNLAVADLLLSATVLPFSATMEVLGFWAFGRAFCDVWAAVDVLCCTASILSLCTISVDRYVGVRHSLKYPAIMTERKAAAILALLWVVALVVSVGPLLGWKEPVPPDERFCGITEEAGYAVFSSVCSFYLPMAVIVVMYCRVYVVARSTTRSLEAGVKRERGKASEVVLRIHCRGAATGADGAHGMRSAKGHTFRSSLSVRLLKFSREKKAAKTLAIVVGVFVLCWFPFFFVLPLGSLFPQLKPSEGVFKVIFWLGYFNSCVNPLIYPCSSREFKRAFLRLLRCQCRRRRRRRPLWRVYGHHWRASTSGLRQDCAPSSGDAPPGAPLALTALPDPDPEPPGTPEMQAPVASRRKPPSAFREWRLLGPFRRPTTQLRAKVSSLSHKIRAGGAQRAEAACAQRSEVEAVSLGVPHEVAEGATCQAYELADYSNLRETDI

[4] = biological target: T3, Alpha-1A adrenergic receptor (Homo sapiens) (UniProt P35348); assay: Partial agonist activity at human recombinant adrenergic alpha-1A receptor expressed in CHO cells assessed as stimulation of intracellular calcium levels incubated at room temperature by fluorimetry; assay type: functional, cell-based
T3 sequence (whole entry): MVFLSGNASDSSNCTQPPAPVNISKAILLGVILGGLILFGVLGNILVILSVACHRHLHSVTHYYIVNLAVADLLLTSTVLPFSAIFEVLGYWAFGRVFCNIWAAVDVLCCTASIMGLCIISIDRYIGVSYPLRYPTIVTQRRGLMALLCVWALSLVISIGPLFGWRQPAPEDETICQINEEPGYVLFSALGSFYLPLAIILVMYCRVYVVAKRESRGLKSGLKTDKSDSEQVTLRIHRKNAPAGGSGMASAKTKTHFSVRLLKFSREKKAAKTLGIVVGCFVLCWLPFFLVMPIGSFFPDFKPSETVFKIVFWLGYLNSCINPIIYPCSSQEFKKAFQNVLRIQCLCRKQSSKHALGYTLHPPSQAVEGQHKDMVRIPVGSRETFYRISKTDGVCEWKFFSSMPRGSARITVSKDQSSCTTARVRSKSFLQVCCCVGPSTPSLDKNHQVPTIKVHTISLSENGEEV

[5] = biological target: T4, Alpha-1D adrenergic receptor (Homo sapiens) (UniProt P25100); assay: Partial agonist activity at human recombinant adrenergic alpha-1D receptor expressed in rat RBL cells assessed as stimulation of intracellular calcium levels incubated at room temperature by fluorimetry; assay type: functional, cell-based
T4 sequence (whole entry): T2 sequence (P25100 whole entry)

[6] = biological target: T5, Alpha-2C adrenergic receptor (Homo sapiens) (UniProt P18825); assay: Competitive antagonist activity at human recombinant adrenergic alpha-2C receptor expressed in CHO cells assessed as inhibition of epinephrine-induced intracellular calcium levels incubated at room temperature by fluorimetry; assay type: functional, cell-based
T5 sequence (whole entry): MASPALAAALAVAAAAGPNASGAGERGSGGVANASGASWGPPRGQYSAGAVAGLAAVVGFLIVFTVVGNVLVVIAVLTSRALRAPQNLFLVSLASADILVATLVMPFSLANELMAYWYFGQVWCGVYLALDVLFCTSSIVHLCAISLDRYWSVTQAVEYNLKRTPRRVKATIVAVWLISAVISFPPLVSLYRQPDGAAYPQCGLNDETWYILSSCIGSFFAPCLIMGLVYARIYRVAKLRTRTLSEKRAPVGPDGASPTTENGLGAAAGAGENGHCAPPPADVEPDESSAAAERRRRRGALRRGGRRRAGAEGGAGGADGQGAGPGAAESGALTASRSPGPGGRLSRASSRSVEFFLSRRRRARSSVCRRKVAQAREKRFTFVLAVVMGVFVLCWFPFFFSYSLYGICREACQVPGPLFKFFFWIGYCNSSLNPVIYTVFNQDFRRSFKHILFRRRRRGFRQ

[7] = biological target: Nociceptin receptor (Homo sapiens) (UniProt P41146); details: 100 nM
Nociceptin receptor (Homo sapiens), sequence (P41146 whole entry): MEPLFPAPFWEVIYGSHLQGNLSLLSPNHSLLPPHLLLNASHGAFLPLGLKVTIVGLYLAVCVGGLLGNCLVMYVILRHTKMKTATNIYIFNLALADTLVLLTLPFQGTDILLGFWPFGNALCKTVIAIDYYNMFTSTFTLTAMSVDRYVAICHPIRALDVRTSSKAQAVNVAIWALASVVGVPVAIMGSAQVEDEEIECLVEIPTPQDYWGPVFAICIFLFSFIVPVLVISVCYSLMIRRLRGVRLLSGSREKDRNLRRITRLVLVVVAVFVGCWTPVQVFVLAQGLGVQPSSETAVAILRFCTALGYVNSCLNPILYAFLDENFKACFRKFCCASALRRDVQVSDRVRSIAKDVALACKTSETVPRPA

[8] = biological target: T6, Alpha-2A adrenergic receptor (Homo sapiens, UniProt P08913); assay: biochemical
T6 sequence (P08913 whole entry): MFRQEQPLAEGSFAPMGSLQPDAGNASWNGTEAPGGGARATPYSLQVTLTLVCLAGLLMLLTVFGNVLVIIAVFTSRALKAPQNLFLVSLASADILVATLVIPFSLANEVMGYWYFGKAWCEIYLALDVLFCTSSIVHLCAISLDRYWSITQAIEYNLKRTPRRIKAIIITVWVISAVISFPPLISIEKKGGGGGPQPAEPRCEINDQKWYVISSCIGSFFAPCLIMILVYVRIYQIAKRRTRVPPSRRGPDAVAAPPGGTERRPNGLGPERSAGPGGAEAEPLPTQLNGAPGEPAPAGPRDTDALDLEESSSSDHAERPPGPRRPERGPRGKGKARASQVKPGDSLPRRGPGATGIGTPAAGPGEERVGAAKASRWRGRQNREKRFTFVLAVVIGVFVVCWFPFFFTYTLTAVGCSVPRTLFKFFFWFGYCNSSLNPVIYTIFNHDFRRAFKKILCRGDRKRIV

`CC[C@@H]1CN2CCc3c([nH]c4cccc(OC)c34)[C@H]2C[C@@H]1/C(=C\OC)C(=O)OC` was tested, and the Activity [1] was “inactive”.

In the case of `CC[C@@H]1CN2CCc3c([nH]c4cccc(OC)c34)[C@@H]2C[C@@H]1/C(=C\OC)C(=O)OC`, the Ki [2] is reported as 4.77 µM, the Ki [3] is reported as 5.48 µM and the Activity [4] is reported as “Active”. For the same compound, the Activity [5] was “Active”, the inhibition [6] was “Active” and the inhibition [7] was 4.3%. The Ki [8] was 4.72 µM.
